Results reported in patent US20190367516A1 (Bayer Pharma Aktiengesellschaft, priority 2015, published 2019).
Where two headings read alike, the source gives them in different places.

Target: T1, human M2 receptor (Homo sapiens, UniProt P08172)
T1 sequence (P08172 1-466): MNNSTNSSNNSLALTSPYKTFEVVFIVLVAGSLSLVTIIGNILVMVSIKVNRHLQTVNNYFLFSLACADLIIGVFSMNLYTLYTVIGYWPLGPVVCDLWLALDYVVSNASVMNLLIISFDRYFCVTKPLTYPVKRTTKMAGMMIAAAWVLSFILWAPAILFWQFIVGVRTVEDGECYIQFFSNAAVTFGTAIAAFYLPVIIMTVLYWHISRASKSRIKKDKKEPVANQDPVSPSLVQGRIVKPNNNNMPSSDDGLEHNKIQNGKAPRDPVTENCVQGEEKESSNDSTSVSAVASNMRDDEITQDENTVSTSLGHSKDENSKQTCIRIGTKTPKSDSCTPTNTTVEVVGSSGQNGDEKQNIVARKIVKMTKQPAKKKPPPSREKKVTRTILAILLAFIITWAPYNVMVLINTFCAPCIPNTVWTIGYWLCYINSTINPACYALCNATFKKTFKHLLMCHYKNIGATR
Conditions: for Emax: read-out: Efficiency, boosting of the acetylcholine effect at EC20 acetylcholine concentration

[1] = Receptor activity EC50, M2-GIRK1/4 activation test, acetylcholine at EC20, allosteric potency, in some cases mean values from two or more determinations
[2] = Receptor activity EC50, allosteric potency at EC20 acetylcholine, M2-GIRK1/4 reporter cells, in some cases mean of two or more determinations

Row | SMILES | EC50 [1] [nM] | EC50 [2] [nM] | Emax (M2-GIRK1/4 reporter cells) [%]
1 | O=C(NC12CC3CC(CC(C3)C1)C2)c1cn(-c2ccc(F)cc2F)c2nc(N3CCOCC3=O)ccc2c1=O [Example 172] | 83 | – | –
2 | O=C(N[C@@H](C1CC1)C(F)(F)F)c1cn(-c2c(F)cc(F)cc2F)c2nc(N3CCOC(CO)C3)ccc2c1=O (single isomer, unassigned) [Example 464, N-[(1 S)-1-Cyclopropyl-2,2,2-trifluoroethyl]-7-[2-(hydroxymethyl)morpholin-4-yl]-4-oxo-1-(2,4,6-trifluorophenyl)-1,4-dihydro-1,8-naphthyridine-3-carboxamide] | – | 128 | 82.5
3 | O=C(NCC(F)(F)F)c1cn(-c2ccc(F)cc2F)c2nc(N3CC[C@H](F)C3)ccc2c1=O [Example 67, 1-(2,4-Difluorophenyl)-7-[(3S)-3-fluoropyrrolidin-1-yl]-4-oxo-N-(2,2,2-trifluoroethyl)-1,4-dihydro-1,8-naphthyridine-3-carboxamide] | 138 | – | –
4 | CC(C)(C)[C@@H](NC(=O)c1cn(-c2c(F)cc(F)cc2F)c2nc(N3CCN(CCO)C3=O)ccc2c1=O)C(F)(F)F [Example 361, 7-[3-(2-Hydroxyethyl)-2-oxoimidazolidin-1-yl]-4-oxo-N-[(2R)-1,1,1-trifluoro-3,3-dimethylbutan-2-yl]-1-(2,4,6-trifluorophenyl)-1,4-dihydro-1,8-naphthyridine-3-carboxamide] | 17 | – | –
5 | Cc1ccc(C(NC(=O)c2cn(-c3ccc(F)cc3F)c3nc(N(C)C)ccc3c2=O)C(F)(F)F)cc1 (racemic) [Example 141, rac-1-(2,4-Difluorophenyl)-7-(dimethylamino)-4-oxo-N-[2,2,2-trifluoro-1-(4-methylphenyl)ethyl]-1,4-dihydro-1,8-naphthyridine-3-carboxamide] | 83 | – | –
6 | C[C@@H](COC(F)(F)F)NC(=O)c1cn(-c2c(F)cc(F)cc2Cl)c2nc(N3C[C@@H](O)[C@H](O)C3)ccc2c1=O [Example 322, 1-(2-Chloro-4,6-difluorophenyl)-7-[(3R,4R)-3,4-dihydroxypyrrolidin-1-yl]-4-oxo-N-[(2S)-1-(trifluoromethoxy)propan-2-yl]-1,4-dihydro-1,8-naphthyridine-3-carboxamide] | 40 | – | –
7 | O=C(NC12CC3CC(F)(CC(F)(C3)C1)C2)c1cn(-c2ccc(F)cc2F)c2nc(NCC(F)(F)F)ccc2c1=O [Example 92, 1-(2,4-Difluorophenyl)-N-(3,5-difluorotricyclo[3.3.1.1^3,7]dec-1-yl)-4-oxo-7-[(2,2,2-trifluoroethyl)amino]-1,4-dihydro-1,8-naphthyridine-3-carboxamide] | 174 | – | –
8 | O=C(N[C@@H](C1CC1)C(F)(F)F)c1cn(-c2c(F)cc(F)cc2F)c2nc(N3CC(CO)OC3=O)ccc2c1=O (mixture of isomers) [Example 659, N-[(1S)-1-Cyclopropyl-2,2,2-trifluoroethyl]-7-[5-(hydroxymethyl)-2-oxo-1,3-oxazolidin-3-yl]-4-oxo-1-(2,4,6-trifluorophenyl)-1,4-dihydro-1,8-naphthyridine-3-carboxamide] | – | 81 | 98

Further lines, results first:

Row | EC50 [1] [nM] | EC50 [2] [nM] | Emax (M2-GIRK1/4 reporter cells) [%] | SMILES
9 | 65 | – | – | CN(C)c1ccc2c(=O)c(C(=O)NC(c3ccc(F)cc3)C(F)(F)F)cn(-c3ccc(F)cc3F)c2n1 (racemic) [Example 139, rac-1-(2,4-Difluorophenyl)-7-(dimethylamino)-4-oxo-N-[2,2,2-trifluoro-1-(4-fluorophenyl)ethyl]-1,4-dihydro-1,8-naphthyridine-3-carboxamide]
10 | 34 | – | – | O=C(N[C@@H](C1CC1)C(F)(F)F)c1cn(-c2c(F)cccc2Cl)c2nc(N3C[C@@H](O)[C@H](O)C3)ccc2c1=O [Example 347, 1-(2-Chloro-6-fluorophenyl)-N-[(1 S)-1-cyclopropyl-2,2,2-trifluoroethyl]-7-[(3R,4R)-3,4-dihydroxypyrrolidin-1-yl]-4-oxo-1,4-dihydro-1,8-naphthyridine-3-carboxamide]
11 | 17 | – | – | CC[C@H](NC(=O)c1cn(-c2c(F)cccc2Cl)c2nc(N3C[C@@H](O)CC3=O)ccc2c1=O)C(F)(F)F [Example 351, 1-(2-Chloro-6-fluorophenyl)-7-[(4S)-4-hydroxy-2-oxopyrrolidin-1-yl]-4-oxo-N-[(2S)-1,1,1-trifluorobutan-2-yl]-1,4-dihydro-1,8-naphthyridine-3-carboxamide]
12 | – | 10 | – | O=C(NC(c1ccccc1Cl)C(F)(F)F)c1cn(-c2c(F)cc(F)cc2F)c2nc(N3CCNC3=O)ccc2c1=O (single isomer, unassigned) [Example 565, N-[1-(2-Chlorophenyl)-2,2,2-trifluoroethyl]-4-oxo-7-(2-oxoimidazolidin-1-yl)-1-(2,4,6-trifluorophenyl)-1,4-dihydro-1,8-naphthyridine-3-carboxamide]
13 | – | 31 | 100 | CC(C)[C@@H](C)NC(=O)c1cn(-c2c(F)cc(F)cc2F)c2nc(N3C[C@@H](O)CC3=O)ccc2c1=O [Example 473, 7-[(4S)-4-Hydroxy-2-oxopyrrolidin-1-yl]-N-[(2R)-3-methylbutan-2-yl]-4-oxo-1-(2,4,6-trifluorophenyl)-1,4-dihydro-1,8-naphthyridine-3-carboxamide]
14 | – | 19 | 91.5 | CC[C@@H](NC(=O)c1cn(-c2ccc(F)cc2F)c2nc(N3C(=O)CCC3C)ccc2c1=O)C(F)(F)F (single isomer, unassigned) [Example 427]
15 | 59 | – | – | O=C(N[C@@H](C1CC1)C(F)(F)F)c1cn(-c2c(F)cccc2F)c2nc(N3C[C@@H](O)[C@H](O)C3)ccc2c1=O [Example 345, N-[(1 S)-1-Cyclopropyl-2,2,2-trifluoroethyl]-1-(2,6-difluorophenyl)-7-[(3R,4R)-3,4-dihydroxypyrrolidin-1-yl]-4-oxo-1,4-dihydro-1,8-naphthyridine-3-carboxamide]
16 | 85 | – | – | CNc1ccc2c(=O)c(C(=O)NC34CC5CC(C3)CC(C(F)(F)F)(C5)C4)cn(-c3ccc(F)cc3F)c2n1 [Example 160, 1-(2,4-Difluorophenyl)-7-(methylamino)-4-oxo-N-[3-(trifluoromethyl)tricyclo[3.3.1.1^3,7]dec-1-yl]-1,4-dihydro-1,8-naphthyridine-3-carboxamide]
17 | – | 43 | 93 | CC(NC(=O)c1cn(-c2ccc(F)cc2F)c2nc(N3C[C@@H](O)CC3=O)ccc2c1=O)C(F)(F)C(F)(F)F (mixture of isomers) [Example 622, 1-(2,4-Difluorophenyl)-7-[(4S)-4-hydroxy-2-oxopyrrolidin-1-yl]-4-oxo-N-[3,3,4,4,4-pentafluorobutan-2-yl]-1,4-dihydro-1,8-naphthyridine-3-carboxamide]
18 | 79 | – | – | CC(C)CC(NC(=O)c1cn(-c2ccc(F)cc2F)c2nc(N3CCS(=O)(=O)C3)ccc2c1=O)C(F)(F)F (stereo not shown) [Example 78, 1-(2,4-Difluorophenyl)-7-(1,1-dioxido-1,3-thiazolidin-3-yl)-4-oxo-N-[1,1-trifluoro-4-methylpentan-2-yl]-1,4-dihydro-1,8-naphthyridine-3-carboxamide]
19 | – | 52 | 93.8 | COC(=O)N1CCN(c2ccc3c(=O)c(C(=O)NC45CC(C4)C5)cn(-c4c(F)cc(F)cc4F)c3n2)CC1 [Example 633, Methyl 4-[6-(bicyclo[1.1.1]pent-1-ylcarbamoyl)-5-oxo-8-(2,4,6-trifluorophenyl)-5,8-dihydro-1,8-naphthyridin-2-yl]piperazine-1-carboxylate]
